Consider eight molecules from patent US8697689B2, “Indole and benzomorpholine derivatives as modulators of metabotropic glutamate receptors” (Janssen Pharmaceuticals, Inc., priority 2008, dated 2014).

For data set [1], the target named is T1, human mGluR2 receptor (Homo sapiens, UniProt Q14416).
T1 construct: expressed in transfected cells; host or cells: CHO cells
Put plainly: [35S]GTPγS binding assay (PAM assay) using membranes from CHO cells transfected with the human mGluR2 receptor. It counts as biochemical. As to conditions: in presence of mGluR2 agonist glutamate at a predetermined EC25 concentration; averages of duplicate values of 11-concentration response curves; error about 0.3 log-units; read-out: GTPgS-hR2 PAM pEC50 (converted). The text has this: The compounds provided in the present invention are positive allosteric modulators of mGluR2. These compounds appear to potentiate glutamate responses by binding to an allosteric site other than the glutamate binding site. The response of mGluR2 to a concentration of glutamate is increased when compounds of Formula (I) are present. Compounds of Formula (I) are expected to have their effect substantially at mGluR2 by virtue of their ability to enhance the function of the receptor. The behaviour of positive allosteric modulators tested at mGluR2 using the [^35S]GTPγS binding assay method described below and which is suitable for the identification of such compounds, and more particularly the compounds according to Formula (I), are shown in Table 4.
The [^35S]GTPγS binding assay is a functional membrane-based assay used to study G-protein coupled receptor (GPCR) function whereby incorporation of a non-hydrolysable form of GTP, [^35S]GTPγS (guanosine 5′-triphosphate, labelled with […] ^35S), is measured. The G-protein α subunit catalyzes the exchange of guanosine 5′-diphosphate (GDP) by guanosine triphosphate (GTP) and on activation of the GPCR by an agonist, [^35S]GTPγS, becomes incorporated and cannot be cleaved to continue the exchange cycle (Harper (1998) Current Protocols in Pharmacology 2.6.1-10, John Wiley & Sons, Inc.). […] Here we describe the use of the [^35S]GTPγS binding assay using membranes from cells transfected with the human mGluR2 receptor and adapted from Schaffhauser et al ((2003) Molecular Pharmacology 4:798-810) for the detection of the positive allosteric modulation (PAM) properties of the compounds of this invention.
CHO-cells were cultured to pre-confluence and stimulated with 5 mM butyrate for 24 hours, prior to washing in PBS (phosphate-buffered saline), and then collection by scraping in homogenisation buffer (50 mM Tris-HCl buffer, pH 7.4, 4° C.). Cell lysates were homogenized briefly (15 s) using an ultra-turrax homogenizer. The homogenate was centrifuged at 23 500×g for 10 min. and the supernatant discarded. The pellet was resuspended in 5 mM Tris-HCl, pH 7.4 and centrifuged again (30 000×g, 20 min., 4° C.). The final pellet was resuspended in 50 mM HEPES, pH 7.4 and stored at −80° C. in appropriate aliquots before use. Protein concentration was determined by the Bradford method (Bio-Rad, USA) with bovine serum albumin as standard.
Measurement of mGluR2 positive allosteric modulatory activity of test compounds in membranes containing human mGluR2 was performed using frozen membranes that were thawed and briefly homogenised prior to pre-incubation in 96-well microplates (15 μg/assay well, 30 minutes, 30° C.) in assay buffer (50 mM HEPES pH 7.4, 100 mM NaCl, 3 mM MgCl2, 50 μM GDP, 10 μg/ml saponin) with increasing concentrations of positive allosteric modulator (from 0.3 nM to 50 μM) and either a minimal pre-determined concentration of glutamate (PAM assay), or no added glutamate. For the PAM assay, membranes were pre-incubated with glutamate at EC25 concentration, i.e. a concentration that gives 25% of the maximal response glutamate, and is in accordance to published data (Pin et al. (1999) Eur. J. Pharmacol. 375:277-294). After addition of [^35S]GTPγS (0.1 nM, f.c.) to achieve a total reaction volume of 200 μl, microplates were shaken briefly and further incubated to allow [^35S]GTPγS incorporation on activation (30 minutes, 30° C.). The reaction was stopped by rapid vacuum filtration over glass-fibre filter plates (Unifilter 96-well GF/B filter plates, Perkin-Elmer, Downers Grove, USA) microplate using a 96-well plate cell harvester (Filtermate, Perkin-Elmer, USA), and then by washing three times with 300 μl of ice-cold wash buffer (Na2PO4.2H2O 10 mM, NaH2PO4.H2O 10 mM, pH=7.4). […]
In general terms: GTPγS is a poorly hydrolysed GTP analogue; its binding reports G protein activation.

T1 sequence (Q14416 19-872): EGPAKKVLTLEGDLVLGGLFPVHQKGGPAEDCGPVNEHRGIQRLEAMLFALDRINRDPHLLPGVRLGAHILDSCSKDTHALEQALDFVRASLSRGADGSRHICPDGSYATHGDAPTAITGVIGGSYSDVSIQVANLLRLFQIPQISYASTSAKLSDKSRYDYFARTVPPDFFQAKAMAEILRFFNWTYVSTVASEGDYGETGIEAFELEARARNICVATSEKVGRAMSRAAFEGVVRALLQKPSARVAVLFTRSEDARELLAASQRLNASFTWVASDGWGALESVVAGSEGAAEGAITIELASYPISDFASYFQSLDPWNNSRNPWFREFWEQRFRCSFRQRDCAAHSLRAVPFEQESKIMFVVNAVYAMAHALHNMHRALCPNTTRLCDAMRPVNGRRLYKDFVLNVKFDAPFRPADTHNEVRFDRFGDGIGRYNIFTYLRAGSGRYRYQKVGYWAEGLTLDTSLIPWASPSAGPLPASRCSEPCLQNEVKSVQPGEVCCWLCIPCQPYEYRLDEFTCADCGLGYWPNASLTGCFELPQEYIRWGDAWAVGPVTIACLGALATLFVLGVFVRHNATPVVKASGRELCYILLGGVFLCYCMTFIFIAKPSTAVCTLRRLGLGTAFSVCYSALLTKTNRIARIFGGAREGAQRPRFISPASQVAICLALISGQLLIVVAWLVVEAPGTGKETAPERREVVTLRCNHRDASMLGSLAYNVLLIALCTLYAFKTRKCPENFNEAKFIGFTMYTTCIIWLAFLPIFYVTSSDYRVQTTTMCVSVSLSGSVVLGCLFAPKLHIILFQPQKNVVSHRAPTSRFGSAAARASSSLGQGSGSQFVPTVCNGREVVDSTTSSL

On to `CCCCn1ccc(-c2ccc3c(c2)OCCN3C2CCOCC2)c(Cl)c1=O` [Compound 1, 1-Butyl-3-chloro-4-[4-(tetrahydro-pyran-4-yl)-3,4-dihydro-2H-benzo[1,4]oxazin-7-yl]-1H-pyridin-2-one], for which the EC50 in data set [1] is 589 nM.
`CCCCn1ccc(-c2ccc3c(ccn3[C@H]3CC[C@H](O)CC3)c2)c(Cl)c1=O` [Compound 3, trans-1-Butyl-3-chloro-4-[1-(4-hydroxy-cyclohexyl)-1H-indol-5-yl]-1H-pyridin-2-one]: the EC50 in data set [1] is 102 nM.
For `CCCCn1ccc(-c2ccc3c(ccn3[C@H]3CC[C@@H](O)CC3)c2)c(Cl)c1=O` [Compound 4, cis-1-Butyl-3-chloro-4-[1-(4-hydroxy-cyclohexyl)-1H-indol-5-yl]-1H-pyridin-2-one], the EC50 in data set [1] was 148 nM.
As to `CCCCn1ccc(-c2ccc3c(ccn3[C@H]3CC[C@](C)(O)CC3)c2)c(Cl)c1=O` [Compound 5, trans-1-Butyl-3-chloro-4-[1-(4-hydroxy-4-methyl-cyclohexyl)-1H-indol-5-yl]-1H-pyridin-2-one], the EC50 in data set [1] was 75.9 nM.
On the same count and under the same terms, as for `CCCCn1ccc(-c2ccc3c(ccn3[C@H]3CC[C@@](C)(O)CC3)c2)c(Cl)c1=O` [Compound 6, cis-1-Butyl-3-chloro-4-[1-(4-hydroxy-4-methyl-cyclohexyl)-1H-indol-5-yl]-1H-pyridin-2-one], the figure is 302 nM.
By melting point is commonly meant the temperature of the solid-liquid transition. The molecule `CC(C)CCn1ccc(-c2ccc3c(ccn3[C@H]3CC[C@H](O)CC3)c2)c(Cl)c1=O` [Compound 7, trans-3-Chloro-4-[1-(4-hydroxy-cyclohexyl)-1H-indol-5-yl]-1-(3-methyl-butyl)-1H-pyridin-2-one] registered a melting point of 182.3 °C. Also, in data set [1], the EC50 is 89.1 nM.
With `O=c1c(Cl)c(-c2ccc3c(ccn3[C@H]3CC[C@H](O)CC3)c2)ccn1CC1CC1` [Compound 8, trans-3-Chloro-1-cyclopropylmethyl-4-[1-(4-hydroxy-cyclohexyl)-1H-indol-5-yl]-1H-pyridin-2-one], the melting point came to 209.4 °C. Moreover, the EC50 in data set [1] is 302 nM.
With `CCCCn1ccc(-c2ccc3c(ccn3C3CCOCC3)c2)c(Cl)c1=O` [Compound 9, 1-Butyl-3-chloro-4-[1-(tetrahydro-pyran-4-yl)-1H-indol-5-yl]-1H-pyridin-2-one], in data set [1], the EC50 is 309 nM.
